Patent US20250026747A1, “COLIBACTIN DERIVATIVES AND METHODS OF TREATING, AMELIORATING, AND/OR PREVENTING CANCER” (priority 2021, published 2025)

Test system: HeLa cells
Experiment: Cell cycle analysis (DNA content histograms) in HeLa cells
Type: cell-based, human
Settings: >11 μM
Experimental: FIGS. 7A-7B evaluates the Colibactin 742 (4) and its linear precursor 9 recapitulate the clb phenotype. […] HeLa cells were treated with the linear precursor 9 (1-100 μM), colibactin 742 (4) (1-100 μM) or MMC (150 nM) for 4 h. The cells were then washed and incubated for 20 h before immunofluorescence imaging. Cells were considered positive when >5 FANCD2 or γH2AX foci formed. Means and standard deviations of results from at least three independent experiments are shown. FIG. 7B depicts the DNA content histograms upon treatment with colibactin 742 (4, 11 μM) or 9 (11 μM) quantification of the sub-population of the histograms.
DNA content histograms and quantification of the sub-population of the histograms.
It has also been reported that clb^+ bacteria induce cell cycle arrest at the G2/M phase and eventual mitotic catastrophe.

C[C@H]1CCC(CC(=O)NC2(C(=O)CC(=O)NCC(=O)c3csc(CCc4csc(CNC(=O)CC(=O)C5(NC(=O)CC6=N[C@@H](C)CC6)CC5)n4)n3)CC2)=N1 [compound 9]
cell cycle arrest at G2/M: accumulation of cells in G2
